This note sets out measurements from patent US20250059220A1, “SUBSTITUTED BENZOTHIOPHENE DERIVATIVES AND METHODS OF USE THEREOF” (Merck Sharp & Dohme LLC, priority 2021, published 2025).

One assay concerns the target human PTPN1 (1-435) (Homo sapiens (Human), UniProt P18031). Nature of the assay: Human PTPN1 Biochemical Assay. Conditions: DiFMUP substrate, read-out: PTP1B IC50. The procedure, abridged: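 Read-out is DiFMUP hydrolysis fluorescence (360 nm excitation, 460 nm emission) after 1 h at room temperature, following 30 min enzyme–compound preincubation.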
The next assay addresses human PTPN2 (1-387) (Homo sapiens (Human), UniProt P17706). Nature of the assay: Human PTPN2 Biochemical Assay. The note with it: DiFMUP substrate. The procedure, abridged:
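Fluorogenic DiFMUP hydrolysis (1 h, room temperature, read ex 360/em 460 nm) after 30 min compound preincubation with PTPN2 residues 1-387, in 50 mM Tris pH 7.4, 150 mM NaCl, 0.01% Tween20, 0.5 mM DTT. Effects scaled between buffer and enzyme controls, 4-parameter fit gives EC50.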

A value given as a limit tells only on which side of the number the result lay.

Chain of human PTPN1 (1-435) (P18031 whole entry): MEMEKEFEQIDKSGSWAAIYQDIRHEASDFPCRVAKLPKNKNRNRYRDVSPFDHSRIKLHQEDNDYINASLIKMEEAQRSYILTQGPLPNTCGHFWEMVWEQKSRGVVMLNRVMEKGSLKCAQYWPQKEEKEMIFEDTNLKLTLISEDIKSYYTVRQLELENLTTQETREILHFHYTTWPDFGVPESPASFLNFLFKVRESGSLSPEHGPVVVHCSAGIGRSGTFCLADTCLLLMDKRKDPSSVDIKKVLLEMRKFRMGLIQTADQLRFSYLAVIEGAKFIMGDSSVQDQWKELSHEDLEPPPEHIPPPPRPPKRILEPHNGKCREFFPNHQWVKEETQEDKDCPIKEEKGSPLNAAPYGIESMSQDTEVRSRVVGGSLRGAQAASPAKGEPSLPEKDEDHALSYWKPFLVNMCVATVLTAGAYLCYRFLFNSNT
Chain of human PTPN2 (1-387) (P17706 other isoform, or with tags, fused parts or gaps): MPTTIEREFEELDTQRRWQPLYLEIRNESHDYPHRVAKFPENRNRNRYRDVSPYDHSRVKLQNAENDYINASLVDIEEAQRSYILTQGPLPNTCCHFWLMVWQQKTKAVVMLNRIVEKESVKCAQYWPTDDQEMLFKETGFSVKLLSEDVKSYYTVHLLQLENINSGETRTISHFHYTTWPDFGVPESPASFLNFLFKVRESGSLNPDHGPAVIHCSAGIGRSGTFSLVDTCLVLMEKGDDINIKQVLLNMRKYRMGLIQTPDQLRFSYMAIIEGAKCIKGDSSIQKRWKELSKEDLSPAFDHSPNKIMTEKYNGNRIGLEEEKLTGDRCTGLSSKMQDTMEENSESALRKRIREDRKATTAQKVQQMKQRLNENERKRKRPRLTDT

As to `NC(=O)c1cc(OCc2ccc(OC(F)F)cc2)c2sc(C(F)(F)P(=O)(O)O)c(Br)c2c1` [Compound 360], the IC50 at human PTPN1 (1-435) came out at 25.2 nM; against human PTPN2 (1-387), 12.9 nM.
On the same counts, the results for `COc1ccc(COc2cc(C(N)=O)cc3c(Br)c(C(F)(F)P(=O)(O)O)sc23)cc1C(F)(F)F` [Compound 361] are 133 nM and 54.6 nM.
Take `COc1cc(Cl)ccc1COc1cc(C(N)=O)cc2c(Br)c(C(F)(F)P(=O)(O)O)sc12` [Compound 362]: the IC50 was determined as 76.7 nM at human PTPN1 (1-435) and 42.8 nM at human PTPN2 (1-387).
Take `COc1cc(COc2cc(C(N)=O)cc3c(Br)c(C(F)(F)P(=O)(O)O)sc23)ccc1C#N` [Compound 363]: the values for the IC50 at human PTPN1 (1-435) and on human PTPN2 (1-387) were 152 nM and 112 nM, respectively.
For `CS(=O)(=O)CCCOc1cc(-c2cnn[nH]2)cc2c(Br)c(C(F)(F)P(=O)(O)O)sc12` [Compound 364], the values for the IC50 at human PTPN1 (1-435) and against human PTPN2 (1-387) were 2.6 nM and 2.5 nM, respectively.
In the same order, the values of `NS(=O)(=O)CCCOc1cc(-c2cnn[nH]2)cc2c(Br)c(C(F)(F)P(=O)(O)O)sc12` [Compound 365] are 2.5 nM and 2.5 nM.
For `Cc1nn[nH]c1-c1cc(OCCCC(F)(F)F)c2sc(C(F)(F)P(=O)(O)O)c(Br)c2c1` [Compound 366], the half-maximal inhibitory concentration (IC50) at human PTPN1 (1-435) turned out to be 2.5 nM; against human PTPN2 (1-387) it was 2.6 nM.
On the same counts, the results for `O=P(O)(O)C(F)(F)c1sc2c(OCC3CC3(F)F)cc(-c3cnn[nH]3)cc2c1Br` (stereo not shown) [Compound 367] are 14.1 nM and 12.2 nM.
On the same counts, the results for `O=P(O)(O)C(F)(F)c1sc2c(OCC3CC3(F)F)cc(-c3cnn[nH]3)cc2c1Br` (stereo not shown) [Compound 368] are 3.1 nM and 3.53 nM.
In the same order, the values of `CS(=O)(=O)c1ccc(COc2cc(-c3cnn[nH]3)cc3c(Br)c(C(F)(F)P(=O)(O)O)sc23)cc1` [Compound 369] are less than 2.5 nM and less than 2.5 nM.
In the case of `CCCC(C)Oc1cc(C(N)=O)cc2c(Br)c(C(F)(F)P(=O)(O)O)sc12` (stereo not shown) [Compound 370], the IC50 at human PTPN1 (1-435) was 133 nM; at human PTPN2 (1-387) it was 140 nM.
`CNS(=O)(=O)CCCOc1cc(C(N)=O)cc2c(Br)c(C(F)(F)P(=O)(O)O)sc12` [Compound 373]: the figures for the IC50 on human PTPN1 (1-435) and at human PTPN2 (1-387) were 8.6 nM and 12 nM, respectively.
In the same order, the values of `CN(C)S(=O)(=O)CCCOc1cc(C(N)=O)cc2c(Br)c(C(F)(F)P(=O)(O)O)sc12` [Compound 374] are 12.5 nM and 14 nM.
On the same counts, the results for `NC(=O)CCCCOc1cc(C(N)=O)cc2c(Br)c(C(F)(F)P(=O)(O)O)sc12` [Compound 375] are 67.4 nM and 77.9 nM.
On the same counts, the results for `NC(=O)c1cc(OCc2ccc(CS(N)(=O)=O)cc2)c2sc(C(F)(F)P(=O)(O)O)c(Br)c2c1` [Compound 376] are 32.6 nM and 37.9 nM.
As for `CS(=O)(=O)c1ccc(COc2cc(C(N)=O)cc3c(Br)c(C(F)(F)P(=O)(O)O)sc23)cc1` [Compound 377], the IC50 at human PTPN1 (1-435) was 5.8 nM; against human PTPN2 (1-387), 4.52 nM.
In the same order, the values of `NC(=O)c1cc(OC[C@@H]2C[C@@H]2F)c2sc(C(F)(F)P(=O)(O)O)c(Br)c2c1` [Compound 378] are 74.4 nM and 91.9 nM.
On to `CS(=O)(=O)c1ccc(COc2cc(C(N)=O)cc3c(Br)c(C(F)(F)P(=O)(O)O)sc23)cn1` [Compound 379], for which the 50% inhibitory concentration (IC50) on human PTPN1 (1-435) turned out to be 5.2 nM; on human PTPN2 (1-387), 3.98 nM.
In the same order, the values of `NC(=O)c1cc(OCc2ccc(S(N)(=O)=O)nc2)c2sc(C(F)(F)P(=O)(O)O)c(Br)c2c1` [Compound 380] are 2.9 nM and 2.5 nM.
In the same order, the values of `NC(=O)c1cc(OC[C@H]2C[C@H](S(N)(=O)=O)C2)c2sc(C(F)(F)P(=O)(O)O)c(Br)c2c1` [Compound 381] are 2.5 nM and 2.5 nM.
In the case of `NC(=O)c1cc(OC[C@H]2C[C@@H](S(N)(=O)=O)C2)c2sc(C(F)(F)P(=O)(O)O)c(Br)c2c1` [Compound 382], the results for the IC50 on human PTPN1 (1-435) and against human PTPN2 (1-387) were 27.6 nM and 32 nM, respectively.
In the same order, the values of `NC(=O)c1cc(OCc2cccc(C(F)(F)F)c2)c2sc(C(F)(F)P(=O)(O)O)c(Br)c2c1` [Compound 383] are 92.3 nM and 79.6 nM.
On to `NC(=O)c1cc(OCc2cc(C(F)(F)F)cc(C(F)(F)F)c2)c2sc(C(F)(F)P(=O)(O)O)c(Br)c2c1` [Compound 384], for which the IC50 on human PTPN1 (1-435) turned out to be 299 nM; against human PTPN2 (1-387), 351 nM.
In the same order, the values of `NC(=O)c1cc(OCc2cccc3ccccc23)c2sc(C(F)(F)P(=O)(O)O)c(Br)c2c1` [Compound 385] are 166 nM and 124 nM.
On the same counts, the results for `NC(=O)c1cc(OCc2ccc3c(c2)CCS3(=O)=O)c2sc(C(F)(F)P(=O)(O)O)c(Br)c2c1` [Compound 386] are 26 nM and 17.1 nM.
In the case of `CS(=O)(=O)c1ccc(COc2cc(C(N)=O)cc3c(Br)c(C(F)(F)P(=O)(O)O)sc23)c(Cl)c1` [Compound 387], the results for the IC50 on human PTPN1 (1-435) and at human PTPN2 (1-387) were 35.8 nM and 15.1 nM, respectively.
In the same order, the values of `NC(=O)c1cc(OCc2ccc(C3(C(F)(F)F)CC3)cc2)c2sc(C(F)(F)P(=O)(O)O)c(Br)c2c1` [Compound 388] are 132 nM and 59.3 nM.
In the same order, the values of `CS(=O)(=O)c1ccc(COc2cc(C(N)=O)cc3c(Br)c(C(F)(F)P(=O)(O)O)sc23)c(F)c1` [Compound 389] are 14.1 nM and 7.8 nM.
Consider `CS(=O)(=O)c1ccc(COc2cc(C(N)=O)cc3c(Br)c(C(F)(F)P(=O)(O)O)sc23)cc1Cl` [Compound 390], for which the IC50 at human PTPN1 (1-435) was determined as 8.7 nM; at human PTPN2 (1-387), 4 nM.
In the same order, the values of `Cc1cc(S(C)(=O)=O)ccc1COc1cc(C(N)=O)cc2c(Br)c(C(F)(F)P(=O)(O)O)sc12` [Compound 391] are 12.4 nM and 6.3 nM.
In the case of `CC1CCS(=O)(=O)C1CCOc1cc(C(N)=O)cc2c(Br)c(C(F)(F)P(=O)(O)O)sc12` (stereo not shown) [Compound 392], the IC50 on human PTPN1 (1-435) is 153 nM; on human PTPN2 (1-387), 170 nM.
On the same counts, the results for `CC1(c2ccc(COc3cc(C(N)=O)cc4c(Br)c(C(F)(F)P(=O)(O)O)sc34)cc2)CC1` [Compound 396] are 68.1 nM and 20.5 nM.
For `NC(=O)c1cc(OCc2ccc(S(N)(=O)=O)cc2)c2sc(C(F)(F)P(=O)(O)O)c(Br)c2c1` [Compound 397], the IC50 on human PTPN1 (1-435) is 7.7 nM; against human PTPN2 (1-387) it was 4.4 nM.
On the same counts, the results for `NC(=O)c1cc(OCc2ccc(-c3cncnc3)cc2)c2sc(C(F)(F)P(=O)(O)O)c(Br)c2c1` [Compound 398] are 78.6 nM and 23.2 nM.
For `NC(=O)c1cc(OCc2ccc(C3CC3)cc2Cl)c2sc(C(F)(F)P(=O)(O)O)c(Br)c2c1` [Compound 399], the IC50 at human PTPN1 (1-435) stood at 213 nM; at human PTPN2 (1-387) it was 69 nM.
`NC(=O)c1cc(OCc2ccc([C@H]3CC[C@H](C(F)(F)F)CC3)cc2)c2sc(C(F)(F)P(=O)(O)O)c(Br)c2c1` [Compound 400]: the IC50 on human PTPN1 (1-435) amounted to 736 nM; against human PTPN2 (1-387) it was 214 nM.
Consider `NC(=O)c1cc(OCc2ccc(-c3cccnc3)cc2)c2sc(C(F)(F)P(=O)(O)O)c(Br)c2c1` [Compound 401], for which the IC50 on human PTPN1 (1-435) worked out at 36.2 nM; against human PTPN2 (1-387) it was 4.4 nM.
On the same counts, the results for `NC(=O)c1cc(OCc2ccc(-c3ccncc3)cc2)c2sc(C(F)(F)P(=O)(O)O)c(Br)c2c1` [Compound 402] are 59.5 nM and 10.1 nM.
As to `NC(=O)c1cc(OCC23CC(S(N)(=O)=O)(C2)C3)c2sc(C(F)(F)P(=O)(O)O)c(Br)c2c1` [Compound 403], the IC50 on human PTPN1 (1-435) is 4.6 nM; against human PTPN2 (1-387), 4 nM.
In the same order, the values of `O=P(O)(O)C(F)(F)c1sc2c(OCCCC(F)(F)F)cc(-c3cn[nH]c3)cc2c1Br` [Compound 404, ((3-bromo-5-(1H-pyrazol-4-yl)-7-(4,4,4-trifluorobutoxy)benzo[b]thiophen-2-yl)difluoromethyl)phosphonic acid] are 287 nM and 224 nM.
On the same counts, the results for `C#Cc1cc(OCCCC(F)(F)F)c2sc(C(F)(F)P(=O)(O)O)c(Br)c2c1` [Compound 405, ((3-bromo-5-ethynyl-7-(4,4,4-trifluorobutoxy)benzo[b]thiophen-2-yl)difluoromethyl)phosphonic acid] are 290 nM and 288 nM.
On the same counts, the results for `O=P(O)(O)C(F)(F)c1sc2c(OCCCC(F)(F)F)cc(I)cc2c1Br` [Compound 406, ((3-bromo-5-iodo-7-(4,4,4-trifluorobutoxy)benzo[b]thiophen-2-yl)difluoromethyl)phosphonic acid] are 487 nM and 518 nM.
Consider `O=C(O)c1cc(OCCCC(F)(F)F)c2sc(C(F)(F)P(=O)(O)O)c(Br)c2c1` [Compound 407], for which the IC50 stood at 191 nM at human PTPN1 (1-435) and 200 nM against human PTPN2 (1-387).
On the same counts, the results for `O=P(O)(O)C(F)(F)c1sc2c(OCCCC(F)(F)F)cc(CO)cc2c1Br` [Compound 408] are 518 nM and 684 nM.
For `CNC(=O)c1cc(OCc2ccc(S(C)(=O)=O)cc2)c2sc(C(F)(F)P(=O)(O)O)c(Br)c2c1` [Compound 409], the IC50 at human PTPN1 (1-435) turned out to be 3.7 nM; on human PTPN2 (1-387) it was 2.6 nM.
In the same order, the values of `O=P(O)(O)C(F)(F)c1sc2c(OCCCC(F)(F)F)cccc2c1Br` [Compound 410, ((3-bromo-7-(4,4,4-trifluorobutoxy)benzo[b]thiophen-2-yl)difluoromethyl)phosphonic acid] are 281 nM and 225 nM.
In the same order, the values of `CS(=N)(=O)Cc1cc(OCCCC(F)(F)F)c2sc(C(F)(F)P(=O)(O)O)c(Br)c2c1` (stereo not shown) [Compound 412] are 323 nM and 359 nM.

Usually IC50 stands for the concentration that inhibits the measured activity by half.
